How the values were obtained:
[1] = tested on: melanoma (K111); assay: MTT cell growth inhibition assay, K111; format: cell-based; settings: 48 h, K111 cells, two days, read-out: IC50 ± SD K111
Method: (§1) The antitumor activities of 14a-r were evaluated in vitro on four tumor cell lines, including non-small cell lung cancer (A549), oral epithelial (KB), melanoma (K111) and large cell lung cancer cell lines (NCI-H460) by the MTT assay, and the results are summarized in Table 1.
(§2) Non-small cell lung cancer (A549), oral epithelial (KB), large cell lung cancer (NCI-H460) and melanoma cell lines (K111) were cultured in Dulbecco’s modified Eagle medium (GIBCO) containing 10% (v/v) inactivated newborn calf serum (Boren Bio-Pharmaceutical Co., Ltd.: Guangzhou, China), […] L-glutamine (SANGON), […] penicillin, 100 µg/mL streptomycin. Cells were grown in a 5% CO2 incubator at 37 °C.
(§3) The antitumor activities were determined by the MTT assay. Cells (2 × 10^3 cells/well) were seeded in 96-well plates. After incubation overnight, each compound, which was dissolved in dimethylsulfoxide (DMSO) and diluted with phosphate buffer solution (PBS), was added to each well and the cells were cultured for another two days at 37 °C. 20 μL (5 mg/mL) MTT solution was added to per well and the culture continued for another 3–4 h. The medium was removed and 100 μL DMSO was added to dissolve formazan crystals. Absorbance was measured at 492 nm using an ELISA reader (Thermo). The antitumor activities were expressed as IC50.

[2] = tested on: non-small cell lung cancer (A549); assay: MTT cell growth inhibition assay, A549; format: cell-based; settings: Homo sapiens, 48 h, A549 cells, two days, read-out: IC50 ± SD A549
Method: as §1, §2, §3

[3] = tested on: large cell lung cancer cell lines (NCI-H460); assay: MTT cell growth inhibition assay, NCI-H460; format: cell-based; settings: Homo sapiens, 48 h, NCI-H460 cells, two days, read-out: IC50 ± SD NCI-H460
Method: as §1, §2, §3

[4] = tested on: oral epithelial (KB); assay: MTT cell growth inhibition assay, KB; format: cell-based; settings: Homo sapiens, 48 h, KB cells, two days
Method: as §1, §2, §3

Row | SMILES | IC50 [1] [µM] | IC50 [2] [µM] | IC50 [3] [µM] | melting point [°C] | IC50 [4] [µM]
1 | CCCNC(=O)c1c(C)[nH]c(/C=C2\C(=O)Nc3ccc(F)cc32)c1Cl [Compound 14d, (Z)-4-Chloro-5-((5-fluoro-2-oxoindolin-3-ylidene)methyl)-2-methyl-N-propyl-1H-pyrrole-3-carboxamide] | > 100 | > 100 | > 100 | > 290 | > 100
2 | CCN(CC)CCNC(=O)c1c(Cl)[nH]c(/C=C2\C(=O)Nc3ccc(Br)cc32)c1C [Compound 14j, (Z)-5-((5-bromo-2-oxoindolin-3-ylidene)methyl)-2-chloro-N-(2-(diethylamino)ethyl)-4-methyl-1H-pyrrole-3-carboxamide] | > 100 | > 100 | > 100 | 248.1 to 248.5 | 34.2 ± 2.96
3 | Cc1[nH]c(/C=C2\C(=O)Nc3ccc(F)cc32)c(Cl)c1C(=O)N1CCN(C)CC1 [Compound 14b, (Z)-3-((3-Chloro-5-methyl-4-(4-methylpiperazine-1-carbonyl)-1H-pyrrol-2-yl)methylene)-5-fluoroindolin-2-one] | > 100 | > 100 | > 100 | 276.7 to 278.5 | > 100
4 | Cc1[nH]c(/C=C2\C(=O)Nc3ccc(F)cc32)c(Cl)c1C(=O)NCCCN(C)C [Compound 14e, (Z)-4-Chloro-N-(3-(dimethylamino)propyl)-5-((5-fluoro-2-oxoindolin-3-ylidene)methyl)-2-methyl-1H-pyrrole-3-carboxamide] | > 100 | 2.33 ± 0.31 | > 100 | 235.1 to 237.3 | 2.88 ± 0.33
5 | CCN(CC)CCNC(=O)c1cc(/C=C2\C(=O)Nc3ccc(F)cc32)[nH]c1Cl [Compound 14n, (Z)-2-Chloro-N-(2-(diethylamino)ethyl)-5-((5-fluoro-2-oxoindolin-3-ylidene)methyl)-1H-pyrrole-3-carboxamide] | > 100 | 3.37 ± 0.27 | > 100 | 233.5 to 234.7 | 4.23 ± 0.65
6 | CCc1c(/C=C2\C(=O)Nc3ccc(F)cc32)[nH]c(Cl)c1C(=O)NCCN(CC)CC [Compound 14q, (Z)-2-Chloro-N-(2-(diethylamino)ethyl)-4-ethyl-5-((5-fluoro-2-oxoindolin-3-ylidene)methyl)-1H-pyrrole-3-carboxamide] | > 100 | 16.7 ± 2.7 | > 100 | 245.2 to 246.8 | 34.4 ± 2.9
7 | Cc1[nH]c(/C=C2\C(=O)Nc3ccc(F)cc32)c(Cl)c1C(=O)NCCN1CCOCC1 [Compound 14a, (Z)-4-Chloro-5-((5-fluoro-2-oxoindolin-3-ylidene)methyl)-2-methyl-N-(2-morpholinoethyl)-1H-pyrrole-3-carboxamide] | > 100 | 1.47 ± 0.13 | > 100 | 268.5 to 269.7 | 52.9 ± 7.93
8 | CCN(CC)CCNC(=O)c1c(C)[nH]c(/C=C2\C(=O)Nc3ccc(C)cc32)c1Cl [Compound 14l, (Z)-4-Chloro-N-(2-(diethylamino)ethyl)-2-methyl-5-((5-methyl-2-oxoindolin-3-ylidene)methyl)-1H-pyrrole-3-carboxamide] | > 100 | > 100 | > 100 | 238.2 to 240 | 64.4 ± 7.51
9 | CCN(CC)CCNC(=O)c1c(Cl)[nH]c(/C=C2\C(=O)Nc3ccc(F)cc32)c1Cl [Compound 14m, (Z)-2,4-Dichloro-N-(2-(diethylamino)ethyl)-5-((5-fluoro-2-oxoindolin-3-ylidene)methyl)-1H-pyrrole-3-carboxamide] | > 100 | > 100 | > 100 | 269.1 to 270.3 | > 100
